≈ marks a conversion by molar mass, not a printed value. Where two headings read alike, the source gives them in different places.
Columns and labels:
Assay in all cases: MIC by agar dilution
Settings in all cases: for MIC: read-out: Modal MIC (most frequent MIC)
E. faecalis (11) = type: cell-based, Enterococcus faecalis
Excerpt: (§1) A collection of 50 isolates of Staphylococci aureus included 36 strains of methicillin-resistant S. aureus (MRSA) frequently encountered in Europe, including strains isolated in Belgium, Finland, France, Germany and the United Kingdom. Another strain of MRSA, NCTC 11939, was included as a control, as well as a methicillin-sensitive control (NCTC 6571). Twelve other isolates of methicillin-sensitive Staphylococcus aureus (MSSA) recently collected from blood cultures were also included. Finally, 50 isolates of enterococci included two control strains (Enterococcus faecalis NCTC 755 and Enterococcus faecium NCTC 7171) and 48 isolates originating from clinical samples obtained from at least three different hospitals. The clinical isolates included E. faecalis (n=10), E. faecium (n=33), Enterococcus casseliflavus (n=3), Enterococcus gallinarum (n=2).
(§2) Determining the minimum inhibitory concentrations (MIC). All the MICs were determined using an agar dilution method. This required use of a medium without a defined antagonist (peptone-free), prepared as described previously with the inclusion of 2% horse blood lysed with saponin, 25.0 μg/mL of NAD and 25.0 μg/mL of hemin [17]. The compounds tested were dissolved in sterile deionised water and incorporated into the agar medium in a concentration range of 0.0031 to 8.0 μg/mL (0.016 to 32 μg/mL for gram-positive bacteria). All the isolates were prepared at a density equivalent to 0.5 McFarland units in sterile deionised water using a densitometer (approximately 1.5×10^8 CFU/mL), and then diluted to 1 for 15. An aliquot of 1 μL of each diluted suspension was then placed onto plates with a multispot inoculator to give the final recommended inoculation of 10 000 CFU/spot. The MICs of fosfomycin were determined by the same method, except that the IsoSensitest medium (Oxoid, Basingstoke, United Kingdom) was used, plus 25.0 μg/mL of glucose-6-phosphate (Sigma, Poole, United Kingdom) and an extended range of fosfomycin concentrations. All the dishes (including the antimicrobial-free controls) were incubated for 22 hours at 37° C. All the tests were performed on at least two independent replicates in order to examine the reproducibility.

E. coli (53) = type: cell-based, Escherichia coli
Excerpt: (§3) Bacterial isolates. […] These included Citrobacter freundii (n=5), other species of Citrobacter (n=4), Enterobacter aerogenes (n=1), Enterobacter cloacae (n=27), Escherichia coli (n=53), Klebsiella oxytoca (n=5), Klebsiella pneumoniae (n=87), Kluyvera spp (n=1), Proteus mirabilis (n=8), Providencia rettgeri (n=2), Salmonella spp (n=3), and Serratia marcescens (n=1). Among these 197 isolates, there were 128 (65%) carbapenemase producers, including; 87 with NDM-1, 9 with IMP, 11 with KPC, 14 with OXA-48 and 7 with VIM. The majority of the carbapenemase producers jointly produced broad-spectrum β-lactamases (BSBL) or cephalosporinases (AmpC β-lactamases), but the latter are not documented for the sake of clarity.
as §2

[1] = tested on: carbapenemase-producing Enterobacteriaceae; type: cell-based
Excerpt: as §3, §2

[2] = tested on: Enterobacteriaceae with a broad-spectrum β-lactamase; type: cell-based
Excerpt: as §3, §2

Enterobacteriaceae (197) = type: cell-based
Excerpt: as §3, §2

[3] = tested on: methicillin-sensitive Staphylococcus aureus; type: cell-based
Excerpt: as §1, §2

[4] = tested on: glycopeptide-resistant enterococci; type: cell-based
Excerpt: as §1, §2

[5] = tested on: methicillin-resistant Staphylococcus aureus; type: cell-based
Excerpt: as §1, §2

All Enterococci (50) = type: cell-based
Excerpt: as §1, §2

All S. aureus (50) = type: cell-based, Staphylococcus aureus
Excerpt: as §1, §2

AmpC (22) = type: cell-based, Enterobacteriaceae
Excerpt: as §3, §2

E. faecium (34) = type: cell-based, Enterococcus faecium
Excerpt: as §1, §2

E. cloacae (27) = type: cell-based, Enterobacter cloacae
Excerpt: as §3, §2

K. pneumoniae (87) = type: cell-based, Klebsiella pneumoniae
Excerpt: as §3, §2

## C[C@H](N)C(=O)N[C@@H](C)C(=O)N[C@@H](C)P(=O)(O)O [Di-alanyl fosfalin, L-alanyl-L-alanyl-L-1-aminoethylphosphonic acid]
E. faecalis (11); E. faecalis (11)
  MIC50: 0.063 µg/mL (≈ 0.236 µM)
  MIC90: 0.5 µg/mL (≈ 1.87 µM)
  Modal MIC (most frequent MIC): 0.031 µg/mL
E. coli (53); E. coli (53)
  MIC50: 0.5 µg/mL (≈ 1.87 µM)
  MIC90: 2 µg/mL (≈ 7.48 µM)
  Modal MIC (most frequent MIC): 0.25 µg/mL
[1]; CPE (128)
  MIC50: 8 µg/mL (≈ 29.9 µM)
  MIC90: >8 µg/mL
  Modal MIC (most frequent MIC): >8 µg/mL
[2]; BSBL (47)
  MIC50: 8 µg/mL (≈ 29.9 µM)
  MIC90: >8 µg/mL
  Modal MIC (most frequent MIC): >8 µg/mL
Enterobacteriaceae (197); Enterobacteriaceae (197)
  MIC50: 8 µg/mL (≈ 29.9 µM)
  MIC90: >8 µg/mL
  Modal MIC (most frequent MIC): >8 µg/mL
[3]; MSSA (13)
  MIC50: 8 µg/mL (≈ 29.9 µM)
  MIC90: 16 µg/mL (≈ 59.9 µM)
  MIC Range: 0.5 to 32 µg/mL
  Modal MIC (most frequent MIC): 16 µg/mL
[4]; GRE (43)
  MIC50: 0.5 µg/mL (≈ 1.87 µM)
  MIC90: >32 µg/mL
  Modal MIC (most frequent MIC): 0.5 µg/mL
[5]; MRSA (37)
  MIC50: 8 µg/mL (≈ 29.9 µM)
  MIC90: 16 µg/mL (≈ 59.9 µM)
  MIC Range: 0.5 to 32 µg/mL
  Modal MIC (most frequent MIC): 4 µg/mL
All Enterococci (50); All Enterococci (50)
  MIC50: 0.5 µg/mL (≈ 1.87 µM)
  MIC90: 2 µg/mL (≈ 7.48 µM)
  Modal MIC (most frequent MIC): 0.5 µg/mL
All Enterococci (50); enterococci
  MICs lower than those of alafosfalin, in certain cases: 256 times
  MICs lower than those of alafosfalin, on average: ~16 times
All S. aureus (50); All S. aureus (50)
  MIC50: 8 µg/mL (≈ 29.9 µM)
  MIC90: 16 µg/mL (≈ 59.9 µM)
  MIC Range: 0.5 to 32 µg/mL
  Modal MIC (most frequent MIC): 4 µg/mL
AmpC (22); AmpC (22)
  MIC50: >8 µg/mL
  MIC90: >8 µg/mL
  Modal MIC (most frequent MIC): >8 µg/mL
E. faecium (34); 34 E. faecium isolates (including 31 vancomycin-resistant)
  concentration by which all isolates were inhibited: 4 µg/mL
E. faecium (34); E. faecium (34)
  MIC50: 0.5 µg/mL (≈ 1.87 µM)
  MIC90: 2 µg/mL (≈ 7.48 µM)
  MIC Range: ≤0.016-4 ^ μg/mL
  Modal MIC (most frequent MIC): 0.5 µg/mL
E. cloacae (27); E. cloacae (27)
  MIC50: >8 µg/mL
  MIC90: >8 µg/mL
  Modal MIC (most frequent MIC): 4 µg/mL
K. pneumoniae (87); K. pneumoniae (87)
  MIC50: >8 µg/mL
  MIC90: >8 µg/mL
  Modal MIC (most frequent MIC): >8 µg/mL

## C[C@@H]1O[C@@H]1P(=O)(O)O [Fosfomycin, disodium [(2R,3S)-3-methyloxiran-2-yl] phosphonate]
E. faecalis (11); Enterococcus faecalis, E. faecalis (11), read-out: MIC50
  MIC50: 32 µg/mL
E. faecalis (11); Enterococcus faecalis, E. faecalis (11), read-out: MIC90
  MIC90: > 32 µg/mL
E. faecalis (11); Enterococcus faecalis, E. faecalis (11)
  MIC: 32 µg/mL
E. coli (53); E. coli (53)
  MIC Range: 0.125 to 8 µg/mL
E. coli (53); Escherichia coli, E. coli (53), read-out: MIC50
  MIC50: 0.5 µg/mL
E. coli (53); Escherichia coli, E. coli (53), read-out: MIC90
  MIC90: 1 µg/mL
E. coli (53); Escherichia coli, E. coli (53)
  MIC: 0.5 µg/mL
[1]
  MIC50: 4 µg/mL
  MIC90: 32 µg/mL
  MIC: 16 µg/mL
[2]; BSBL (47), read-out: MIC50
  MIC50: 8 µg/mL
[2]; BSBL (47), read-out: MIC90
  MIC90: > 32 µg/mL
[2]; BSBL (47)
  MIC: > 32 µg/mL
Enterobacteriaceae (197); Enterobacteriaceae (197), read-out: MIC50
  MIC50: 4 µg/mL
Enterobacteriaceae (197); Enterobacteriaceae (197), read-out: MIC90
  MIC90: > 32 µg/mL
Enterobacteriaceae (197); Enterobacteriaceae (197)
  MIC: 4 µg/mL
[3]; MSSA (13)
  MIC Range: 2 to 16 µg/mL
[3]; Staphylococcus aureus, MSSA (13), read-out: MIC50
  MIC50: 4 µg/mL
[3]; Staphylococcus aureus, MSSA (13), read-out: MIC90
  MIC90: 16 µg/mL
[3]; Staphylococcus aureus, MSSA (13)
  MIC: 4 µg/mL
[4]; GRE (43), read-out: MIC50
  MIC50: > 32 µg/mL
[4]; GRE (43), read-out: MIC90
  MIC90: > 32 µg/mL
[4]; GRE (43)
  MIC: > 32 µg/mL
[5]; Staphylococcus aureus, MRSA (37), read-out: MIC50
  MIC50: 4 µg/mL
[5]; Staphylococcus aureus, MRSA (37), read-out: MIC90
  MIC90: 16 µg/mL
[5]; Staphylococcus aureus, MRSA (37)
  MIC: 8 µg/mL
All Enterococci (50); All Enterococci (50), read-out: MIC50
  MIC50: > 32 µg/mL
All Enterococci (50); All Enterococci (50), read-out: MIC90
  MIC90: > 32 µg/mL
All Enterococci (50); All Enterococci (50)
  MIC: > 32 µg/mL
All S. aureus (50); Staphylococcus aureus, All S. aureus (50), read-out: MIC50
  MIC50: 4 µg/mL
All S. aureus (50); Staphylococcus aureus, All S. aureus (50), read-out: MIC90
  MIC90: 16 µg/mL
All S. aureus (50); Staphylococcus aureus, All S. aureus (50)
  MIC: 8 µg/mL
AmpC (22)
  MIC90: > 32 µg/mL
  MIC: 32 µg/mL
E. faecium (34); Enterococcus faecium, E. faecium (34), read-out: MIC50
  MIC50: > 32 µg/mL
E. faecium (34); Enterococcus faecium, E. faecium (34), read-out: MIC90
  MIC90: > 32 µg/mL
E. faecium (34); Enterococcus faecium, E. faecium (34)
  MIC: > 32 µg/mL
E. cloacae (27); Enterobacter cloacae, E. cloacae (27), read-out: MIC50
  MIC50: 16 µg/mL
E. cloacae (27); Enterobacter cloacae, E. cloacae (27), read-out: MIC90
  MIC90: 32 µg/mL
E. cloacae (27); Enterobacter cloacae, E. cloacae (27)
  MIC: 16 µg/mL
K. pneumoniae (87); Klebsiella pneumoniae, K. pneumoniae (87), read-out: MIC50
  MIC50: 8 µg/mL
K. pneumoniae (87); Klebsiella pneumoniae, K. pneumoniae (87), read-out: MIC90
  MIC90: > 32 µg/mL
K. pneumoniae (87); Klebsiella pneumoniae, K. pneumoniae (87)
  MIC: 4 µg/mL

## N[C@@H](CCl)C(=O)N[C@@H](CCl)C(=O)O [β-Cl-Ala-β-Cl-Ala, β-chloro-L-alanyl-β-chloro-L-alanine]
E. faecalis (11); E. faecalis (11)
  MIC Range: 4 to 16 µg/mL
E. faecalis (11); Enterococcus faecalis
  MIC50: 8 µg/mL (≈ 34.9 µM)
  MIC90: 16 µg/mL (≈ 69.8 µM)
  MIC: 8 µg/mL (≈ 34.9 µM)
E. coli (53); Escherichia coli
  MIC50: 8 µg/mL (≈ 34.9 µM)
  MIC90: > 8 µg/mL
  MIC: 8 µg/mL (≈ 34.9 µM)
[1]
  MIC50: > 8 µg/mL
  MIC90: > 8 µg/mL
  MIC: > 8 µg/mL
[2]
  MIC50: > 8 µg/mL
  MIC90: > 8 µg/mL
  MIC: > 8 µg/mL
Enterobacteriaceae (197)
  MIC50: > 8 µg/mL
  MIC90: > 8 µg/mL
  MIC: > 8 µg/mL
[3]; MSSA (13)
  MIC Range: 0.5 to 2 µg/mL
[3]; Staphylococcus aureus, MSSA
  MIC50: 1 µg/mL (≈ 4.37 µM)
  MIC90: 2 µg/mL (≈ 8.73 µM)
  MIC: 1 µg/mL (≈ 4.37 µM)
[4]
  MIC50: 16 µg/mL (≈ 69.8 µM)
  MIC90: > 32 µg/mL
  MIC: 16 µg/mL (≈ 69.8 µM)
[5]; MRSA (37)
  MIC Range: 0.125 to 16 µg/mL
[5]; Staphylococcus aureus, MRSA
  MIC50: 2 µg/mL (≈ 8.73 µM)
  MIC90: 4 µg/mL (≈ 17.5 µM)
  MIC: 2 µg/mL (≈ 8.73 µM)
All Enterococci (50)
  MIC50: 16 µg/mL (≈ 69.8 µM)
  MIC90: 32 µg/mL (≈ 140 µM)
  MIC: 16 µg/mL (≈ 69.8 µM)
All Enterococci (50); All Enterococci (50)
  MIC Range: 2 to 16 µg/mL
All S. aureus (50); All S. aureus (50)
  MIC Range: 0.125 to 16 µg/mL
All S. aureus (50); Staphylococcus aureus
  MIC50: 2 µg/mL (≈ 8.73 µM)
  MIC90: 4 µg/mL (≈ 17.5 µM)
  MIC: 2 µg/mL (≈ 8.73 µM)
AmpC (22)
  MIC50: > 8 µg/mL
  MIC90: > 8 µg/mL
  MIC: > 8 µg/mL
E. faecium (34); Enterococcus faecium
  MIC50: 16 µg/mL (≈ 69.8 µM)
  MIC90: 32 µg/mL (≈ 140 µM)
  MIC: 16 µg/mL (≈ 69.8 µM)
E. cloacae (27); Enterobacter cloacae
  MIC50: > 8 µg/mL
  MIC90: > 8 µg/mL
  MIC: > 8 µg/mL
K. pneumoniae (87); Klebsiella pneumoniae
  MIC50: > 8 µg/mL
  MIC90: > 8 µg/mL
  MIC: > 8 µg/mL
